Experiment [1] addresses human CB2 receptors (Homo sapiens (Human), UniProt P34972). Put plainly: functional cAMP assay, CHO cells expressing human CB2 receptors. In kind it is cell-based. On the procedure: (§1) CHO cells expressing human CB1 or CB2 receptors are seeded 17-24 hours prior to the experiment 50.000 cells per well in a black 96 well plate with flat clear bottom (Corning Costar #3904) in DMEM (Invitrogen No. 31331), 1×HT supplement, with 10% fetal calf serum and incubated at 5% CO2 and 37° C. in a humidified incubator. The growth medium was exchanged with Krebs Ringer Bicarbonate buffer with 1 mM IBMX and incubated at 30° C. for 30 min. Compounds were added to a final assay volume of 100 μl and incubated for 30 min at 30° C. Using the cAMP-Nano-TRF detection kit the assay (Roche Diagnostics) was stopped by the addition of 50 μl lysis reagent (Tris, NaCl, 1.5% Triton X100, 2.5% NP40, 10% NaN3) and 50 μl detection solutions (20 μM mAb Alexa700-cAMP 1:1, and 48 μM Ruthenium-2-AHA-cAMP) and shaken for 2 h at room temperature. The time-resolved energy transfer is measured by a TRF reader (Evotec Technologies GmbH), equipped with a ND:YAG laser as excitation source. The plate is measured twice with the excitation at 355 nm and at the emission with a delay of 100 ns and a gate of 100 ns, total exposure time 10 s at 730 (bandwidth 30 nm) or 645 nm (bandwidth 75 nm), respectively. The FRET signal is calculated as follows: FRET=T730-Alexa730-P(T645-B645) with P=Ru730-B730/Ru645-B645, where T730 is the test well measured at 730 nM, T645 is the test well measured at 645 nm, B730 and B645 are the buffer controls at 730 nm and 645 nm, respectively. cAMP content is determined from the function of a standard curve spanning from 10 μM to 0.13 nM cAMP.
(§2) EC50 values were determined using Activity Base analysis (ID Business Solution, Limited). The EC50 values for a wide range of cannabinoid agonists generated from this assay were in agreement with the values published in the scientific literature.

Experiment [2] deals with human CB1 receptors (Homo sapiens (Human), UniProt P21554). Put plainly: functional cAMP assay, CHO cells expressing human CB1 receptors. It counts as cell-based. How it is done:
as §1, §2

Each structure is given as a SMILES string.

Sequence of human CB1 receptors (P21554 whole entry): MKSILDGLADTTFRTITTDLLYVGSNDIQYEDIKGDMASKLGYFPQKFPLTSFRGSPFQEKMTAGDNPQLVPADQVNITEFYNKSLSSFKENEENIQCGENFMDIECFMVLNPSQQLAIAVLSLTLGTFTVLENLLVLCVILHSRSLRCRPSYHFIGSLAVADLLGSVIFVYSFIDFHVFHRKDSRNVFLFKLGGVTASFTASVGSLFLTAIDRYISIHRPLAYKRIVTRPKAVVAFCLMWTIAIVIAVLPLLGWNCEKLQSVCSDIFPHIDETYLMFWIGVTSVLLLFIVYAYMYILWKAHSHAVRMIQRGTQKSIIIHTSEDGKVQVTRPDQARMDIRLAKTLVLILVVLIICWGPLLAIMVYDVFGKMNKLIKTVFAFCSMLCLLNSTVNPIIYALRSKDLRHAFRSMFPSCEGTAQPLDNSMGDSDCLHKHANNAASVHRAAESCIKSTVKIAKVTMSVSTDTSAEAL
Sequence of human CB2 receptors (P34972 whole entry): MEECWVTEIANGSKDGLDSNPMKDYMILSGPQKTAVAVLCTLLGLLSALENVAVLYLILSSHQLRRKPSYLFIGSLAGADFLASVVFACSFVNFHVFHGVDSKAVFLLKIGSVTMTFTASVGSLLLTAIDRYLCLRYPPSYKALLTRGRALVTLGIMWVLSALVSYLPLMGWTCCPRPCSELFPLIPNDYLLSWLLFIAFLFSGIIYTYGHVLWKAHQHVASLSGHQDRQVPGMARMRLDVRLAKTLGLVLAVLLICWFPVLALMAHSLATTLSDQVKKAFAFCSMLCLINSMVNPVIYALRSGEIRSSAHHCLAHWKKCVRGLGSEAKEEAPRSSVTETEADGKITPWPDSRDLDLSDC

In the case of `NC(=O)[C@@H]1C[S@+]([O-])CN1C(=O)c1ccc(C2CC2)c(OCC2CC2)n1` (single isomer, unassigned) [Example 116, (1S,4R)-3-(5-Cyclopropyl-6-cyclopropylmethoxy-pyridine-2-carbonyl)-1-oxo-1λ^4-thiazolidine-4-carboxylic acid amide or (1R,4S)-3-(5-cyclopropyl-6-cyclopropylmethoxy-pyridine-2-carbonyl)-1-oxo-1λ^4-thiazolidine-4-carboxylic acid amide], the EC50 in experiment [1] is 672 nM; in experiment [2], more than 10000 nM.

For `CN(C(=O)c1ccc(N2CC(F)(F)C2)c(OCC2CC2)n1)C(C)(C)C` [Example 1, 6-Cyclopropylmethoxy-5-(3,3-difluoro-azetidin-1-yl)-pyridine-2-carboxylic acid tert-butyl-methyl-amide], the EC50 in experiment [1] was 4.6 nM; in experiment [2] it was more than 10000 nM.

As to `CN(C)C(=O)c1ccc(N2CC(F)(F)C2)c(OCC2CC2)n1` [Example 2, 6-Cyclopropylmethoxy-5-(3,3-difluoro-azetidin-1-yl)-pyridine-2-carboxylic acid dimethylamide], the EC50 is 297 nM in experiment [1] and more than 10000 nM in experiment [2].

As to `CN(C(=O)c1ccc(C2CC2)c(OCC2CC2)n1)C(C)(C)C` [Example 3, 5-Cyclopropyl-6-cyclopropylmethoxy-pyridine-2-carboxylic acid tert-butyl-methyl-amide], the EC50 was 7.2 nM in experiment [1] and more than 10000 nM in experiment [2].

For the compound `CN(C(=O)c1ccc(C2CC2)c(OCC2CCCO2)n1)C(C)(C)C` (centres unmarked) [Example 4, 5-Cyclopropyl-6-(tetrahydro-furan-2-ylmethoxy)-pyridine-2-carboxylic acid tert-butyl-methyl-amide], the results for the EC50 in experiment [1] and in experiment [2] were 8.5 nM and more than 10000 nM, respectively.

With `CN(C(=O)c1ccc(C2CC2)c(Cc2ccc(F)cc2)n1)C(C)(C)C` [Example 5, 5-Cyclopropyl-6-(4-fluoro-benzyl)-pyridine-2-carboxylic acid tert-butyl-methyl-amide], the EC50 amounted to 0.8 nM in experiment [1] and 268 nM in experiment [2].

As to `CC(C)CS(=O)(=O)c1nc(C(=O)N(C)C(C)(C)C)ccc1C1CC1` [Example 6, 5-Cyclopropyl-6-(2-methyl-propane-1-sulfonyl)-pyridine-2-carboxylic acid tert-butyl-methyl-amide], the EC50 in experiment [1] was 106 nM; in experiment [2] it was more than 10000 nM.

For `CCN(C(=O)c1ccc(N2CC(F)(F)C2)c(OCC2CC2)n1)C(C)(C)C` [Example 7, 6-Cyclopropylmethoxy-5-(3,3-difluoro-azetidin-1-yl)-pyridine-2-carboxylic acid tert-butyl-ethyl-amide], the results for the concentration for a half-maximal effect (EC50) in experiment [1] and in experiment [2] were 0.6 nM and 292 nM, respectively.

As for `COCC(C)(C)N(C)C(=O)c1ccc(N2CC(F)(F)C2)c(OCC2CC2)n1` [Example 9, 6-Cyclopropylmethoxy-5-(3,3-difluoro-azetidin-1-yl)-pyridine-2-carboxylic acid (2-methoxy-1,1-dimethyl-ethyl)-methyl-amide], the EC50 in experiment [1] is 3.8 nM; in experiment [2], more than 10000 nM.

Consider `O=C(c1ccc(N2CC(F)(F)C2)c(OCC2CC2)n1)N1CCC12COC2` [Example 10, [6-Cyclopropylmethoxy-5-(3,3-difluoro-azetidin-1-yl)-pyridin-2-yl]-(6-oxa-1-aza-spiro[3.3]hept-1-yl)-methanone], for which the EC50 in experiment [1] is 662 nM; in experiment [2], more than 10000 nM.

For `O=C(c1ccc(N2CC(F)(F)C2)c(OCC2CC2)n1)N1CC2(COC2)C1` [Example 11, [6-Cyclopropylmethoxy-5-(3,3-difluoro-azetidin-1-yl)-pyridin-2-yl]-(2-oxa-6-aza-spiro[3.3]hept-6-yl)-methanone], the EC50 in experiment [1] was 364 nM; in experiment [2], more than 10000 nM.

In the case of `CN(C(=O)c1ccc(N2CC(F)(F)C2)c(OCC2CC2)n1)C(C)(C)COC(=O)c1ccc(N2CC(F)(F)C2)c(OCC2CC2)n1` [Example 12, 6-Cyclopropylmethoxy-5-(3,3-difluoro-azetidin-1-yl)-pyridine-2-carboxylic acid 2-{[6-cyclopropylmethoxy-5-(3,3-difluoro-azetidin-1-yl)-pyridine-2-carbonyl]-methyl-amino}-2-methyl-propyl ester], the results for the EC50 in experiment [1] and in experiment [2] were 134 nM and more than 10000 nM, respectively.

In the case of `CC(Oc1nc(C(=O)N(C)C(C)(C)C)ccc1C1CC1)C(F)(F)F` (centres unmarked) [Example 13, 5-Cyclopropyl-6-(2,2,2-trifluoro-1-methyl-ethoxy)-pyridine-2-carboxylic acid tert-butyl-methyl-amide], the EC50 in experiment [1] was 119 nM; in experiment [2] it was more than 10000 nM.

In the case of `CC1(C)COCN1C(=O)c1ccc(N2CC(F)(F)C2)c(OCC2CC2)n1` [Example 14, [6-Cyclopropylmethoxy-5-(3,3-difluoro-azetidin-1-yl)-pyridin-2-yl]-(4,4-dimethyl-oxazolidin-3-yl)-methanone], the results for the 50% effective concentration (EC50) in experiment [1] and in experiment [2] were 7.3 nM and more than 10000 nM, respectively.

For the compound `CN(C(=O)c1ccc(C(F)(F)F)c(OCC2CCCO2)n1)C(C)(C)C` (centres unmarked) [Example 15, 6-(Tetrahydro-furan-2-ylmethoxy)-5-trifluoromethyl-pyridine-2-carboxylic acid tert-butyl-methyl-amide], the EC50 is 249 nM in experiment [1] and more than 10000 nM in experiment [2].

Turning to `CN(C(=O)c1ccc(N2CC(F)(F)C2)c(OCC2CC2)n1)C1(C(F)(F)F)CC1` [Example 16, 6-Cyclopropylmethoxy-5-(3,3-difluoro-azetidin-1-yl)-pyridine-2-carboxylic acid methyl-(1-trifluoromethyl-cyclopropyl)-amide], the EC50 in experiment [1] is 8 nM; in experiment [2], more than 10000 nM.

On to `CC1(C)COCCN1C(=O)c1ccc(N2CC(F)(F)C2)c(OCC2CC2)n1` [Example 17, [6-Cyclopropylmethoxy-5-(3,3-difluoro-azetidin-1-yl)-pyridin-2-yl]-(3,3-dimethyl-morpholin-4-yl)-methanone], for which the EC50 in experiment [1] is 5.2 nM; in experiment [2], more than 10000 nM.

As for `CC1(C)CCCN1C(=O)c1ccc(N2CC(F)(F)C2)c(OCC2CC2)n1` [Example 18, [6-Cyclopropylmethoxy-5-(3,3-difluoro-azetidin-1-yl)-pyridin-2-yl]-(2,2-dimethyl-pyrrolidin-1-yl)-methanone], the EC50 in experiment [1] is 0.6 nM; in experiment [2] it was more than 10000 nM.

For `COCCN(C(=O)c1ccc(N2CC(F)(F)C2)c(OCC2CC2)n1)C(C)(C)CO` [Example 19, 6-Cyclopropylmethoxy-5-(3,3-difluoro-azetidin-1-yl)-pyridine-2-carboxylic acid (2-hydroxy-1,1-dimethyl-ethyl)-(2-methoxy-ethyl)-amide], the EC50 in experiment [1] was 856 nM; in experiment [2] it was more than 10000 nM.

As for `COCCN(C(=O)c1ccc(N2CC(F)(F)C2)c(OCC2CC2)n1)C(C)(C)C` [Example 20, 6-Cyclopropylmethoxy-5-(3,3-difluoro-azetidin-1-yl)-pyridine-2-carboxylic acid tert-butyl-(2-methoxy-ethyl)-amide], the results for the EC50 in experiment [1] and in experiment [2] were 5.3 nM and more than 10000 nM, respectively.

For `CCN(C(=O)c1ccc(N2CC(F)(F)C2)c(OCC2CC2)n1)C1(C(F)(F)F)CC1` [Example 21, 6-Cyclopropylmethoxy-5-(3,3-difluoro-azetidin-1-yl)-pyridine-2-carboxylic acid ethyl-(1-trifluoromethyl-cyclopropyl)-amide], the EC50 in experiment [1] is 2.8 nM; in experiment [2], more than 10000 nM.

Take `O=C(c1ccc(N2CC(F)(F)C2)c(OCC2CC2)n1)N(Cc1ccccc1)C1(C(F)(F)F)CC1` [Example 22, 6-Cyclopropylmethoxy-5-(3,3-difluoro-azetidin-1-yl)-pyridine-2-carboxylic acid benzyl-(1-trifluoromethyl-cyclopropyl)-amide]: the EC50 in experiment [1] is 25 nM; in experiment [2] it was more than 10000 nM.

As for `CCOC(=O)CN(C(=O)c1ccc(N2CC(F)(F)C2)c(OCC2CC2)n1)C(C)(C)C` [Example 23, {tert-Butyl-[6-cyclopropylmethoxy-5-(3,3-difluoro-azetidin-1-yl)-pyridine-2-carbonyl]-amino}-acetic acid ethyl ester], the EC50 was 5.8 nM in experiment [1] and more than 10000 nM in experiment [2].

Consider `CC(C)(C)N(CC(=O)O)C(=O)c1ccc(N2CC(F)(F)C2)c(OCC2CC2)n1` [Example 24, {tert-Butyl-[6-cyclopropylmethoxy-5-(3,3-difluoro-azetidin-1-yl)-pyridine-2-carbonyl]-amino}-acetic acid], for which the EC50 in experiment [1] was 340 nM; in experiment [2] it was more than 10000 nM.

Regarding `CC(C)(C)N(Cc1ccccc1)C(=O)c1ccc(N2CC(F)(F)C2)c(OCC2CC2)n1` [Example 25, 6-Cyclopropylmethoxy-5-(3,3-difluoro-azetidin-1-yl)-pyridine-2-carboxylic acid benzyl-tert-butyl-amide], the EC50 is 37 nM in experiment [1] and more than 10000 nM in experiment [2].
